Assay results taken from patent publication US20150283127A1, “SAQUINAVIR-NO FOR IMMUNOMODULATION” (ONCONOX APS, priority 2012, published 2015).

Key:
murine SPC = experiment: Cytokine generation (ELISA) in ConA-stimulated murine SPC; type: cell-based, mouse; details: for Effects on cytokines at low concentrations: unfractionated spleen cells and/or purified murine CD4 T cells, concentrations of 2.5 and 5 mM
Excerpt: (§1) Experimental animals (C57BL/6 mice, BALB/c mice and Dark Agouti rats) were obtained from the Animal House Facility of the Institute for Biological Research “Sinisa Stanković”, Belgrade, Serbia. Spleen cells (SPC) were isolated from murine spleens and lymph node cells (LNC) were obtained from rat cervical lymph nodes of untreated animals. Draining lymph node cells (DLNC) were obtained from popliteal lymph nodes 8-10 days after immunization of rats with myelin basic protein (guinea pig MBP, kind gift from professor Alexander Fluegel, University of Goettingen, Germany) and complete Freund's adjuvant (CFA, Difco, Detroit, Mich.). The organs were mechanically disrupted, passed through 40-μm nylon mesh filter and the resulting suspension was collected by centrifugation. Red blood cells from single cell suspensions obtained from spleens were lysed using RBC Lysis Buffer (eBioscience, San Diego, Calif.). CD4+ cells were purified from SPC using biotin conjugated antibody specific for CD4 (eBioscience) and IMag SAv particles plus (BD Biosciences, San Diego, Calif.). Obtained purity of CD4 population was more than 97% as determined by flow cytometry. SPC and LNC were seeded at 5×10^6/ml/well, DLNC at 2.5×10^6/ml/well and CD4+ cells at 1×10^6/ml/well of 24-well plates. Cells infiltrating spinal cords (SC) were obtained from SC of rats immunized with MBP+CFA at the time when rats suffered from severe clinical signs of experimental autoimmune encephalomyelitis (EAE). Rats were perfused with sterile PBS, SC were homogenized, adjusted to 30% Percoll (Sigma-Aldrich) and overlaid on 70% Percoll gradient. Following centrifugation at 870 g for 50 min the SC cells (SCC) were recovered from the […] Percoll interface and washed in RPMI-1640 medium. SCC were seeded at 0.5×106/200 μl/well of 96-well plates. SPC and LNC were stimulated with 2.5 μg/ml concanavalin A (ConA, Sigma-Aldrich), DLNC with MBP (10 ng/ml), CD4+ cells with anti-CD3 and anti-CD28 antibody (1 μg/ml each, both from eBioscience) and SCC were left untreated.
(§2) Cytokine concentration in cell culture supernatants was determined by sandwich ELISA using MaxiSorp plates (Nunc, Rochild, Denmark) and anti-cytokine paired antibodies according to the manufacturer's instructions. Samples were analyzed in duplicate for murine/rat IL-17, murine IL-10, murine TNF, murine IL-4 (eBioscience), murine IFN-γ, rat IFN-γ, rat IL-4 (R&D, Minneapolis, Minn.), rat IL-10 and rat TNF (BD Biosciences). The results were calculated using standard curves made on the basis of known concentrations of the appropriate recombinant cytokines.
In order to investigate the potential of Saq-NO to modulate cytokine production in immune cells, rat LNC were stimulated with ConA in the presence of various concentrations of Saq-NO for 24 hours and the levels of IFN-g, IL-4, IL-17, IL-10 and TNF were determined in cell-free culture supernatants. […] Effects of Saq-NO on the cytokine generation were examined in murine SPC, as well. Here, Saq-NO was applied in parallel with Saq and their influence on the cytokine generation and cell viability was compared. Further, two strains of mice were used, i.e. BALB/c and C57BL/6 mice which are prototypical Th2 and Th1 mice, respectively (Lohoff et al., 1998). […] Moreover, the influence of Saq-NO on the cytokines was evident with concentrations of the agent that had no effect on SPC viability (FIG. 2).

murine CD4+ cells = experiment: Cytokine generation (ELISA) in murine CD4+ cells stimulated with anti-CD3 and anti-CD28; type: cell-based, mouse; details: for Influence on IL-10 / TNF release: CD4+ cells
Excerpt: as §1, §2
CD4+ cells were purified from C57BL/6 SPC and stimulated with anti-CD3 and anti-CD28 antibodies in the presence of various concentrations of Saq-NO for 24 hours. The influence of Saq-NO on cytokine generation was compared to its influence on CD4+ cell viability and to the influence of Saq on the same parameters. […] Thus, Saq-NO directly affects T cell cytokine production.

MOG-induced EAE = MOG-induced EAE in C57Bl6 mice; type: in vivo; details: for Clinical course of the disease: day 7 to 30; for Disease after interruption of the late prophylactic treatment: observed for further 11 days
Excerpt: Seven to 8 weeks-old male C57Bl6 mice and 6 to 7 weeks-old female SJL mice (Harlan Laboratories srl, San Pietro al Natisone, Udine, Italy) were used in the experiments. They were kept under standard laboratory conditions (non specific pathogen free) with free access to food (Harlan Global Diet 2018) and water and were allowed to adapt at least one week to their environment before commencing the study.
MOG35-55 was synthesized by Genemed synthesis (San Francisco Calif.). The mice were immunized with 200 μg MOG emulsified in CFA with 1 mg of Mycobacterium tuberculosis H37RA (Difco, Detroit, Mich., USA) to make a 1:1 emulsion. Each mouse received subcutaneous injections of 200 μl emulsion divided among two sites draining into the axillary lymph nodes. Pertussis toxin (Calbiochem, Nottingham, UK) was used as a coadjuvant and was administered i.p. at the dose of 200 ng/mouse on day 0 and 2 post immunization. The mice were observed every day by measuring their body weights and clinical signs of EAE until 30 days after immunization. These clinical grading were carried out by an observer unaware of the treatment: 0=no sign of disease; 0.5=partial tail paralysis; 1=tail paralysis; 1.5=tail paralysis+partial unilateral hindlimb paralysis; 2=tail paralysis+hindlimb weakness or partial hindlimb paralysis; 2.5=tail paralysis+partial hindlimb paralysis (lowered pelvi); 3=tail paralysis+complete hindlimb paralysis; 3.5=tail paralysis+complete hindlimb paralysis+incontinence; 4=tail paralysis+hindlimb paralysis+weakness or partial paralysis of forelimbs; 5=moribund or dead.
The study involved 4 groups of 10 animals each. All the groups were immunized with the MOG35-55 peptide in CFA and pertuxis toxin, according to the immunization procedure described above and assigned to the following treatments:
The late prophylactic treatment started on day 7 immunization and continued until day 30; the therapeutic regime started at the onset of the disease and continued for 23 consecutive days.

[1] = anti-CD3 and anti-CD28, 24 hours
[2] = late prophylactic treatment, 10 mg/Kg i.p. daily

Compound	Production of IFN-g, IL-4, IL-17, TNF (murine SPC; murine SPC)	Production of IL-10 (murine SPC; murine SPC)	Effect on the release of IFN-g, IL-4, IL-17, IL-10 and TNF, compared with Saq (murine SPC; murine SPC of BALB/c and C57BL/6 mice, ConA)	Effects on cytokines at low concentrations (murine SPC)	Generation of IFN-g, IL-4 and IL-17 (murine CD4+ cells; CD4+ cells of C57BL/6 SPC, anti-CD3 and anti-CD28, 24 hours)	Influence on IL-10 (murine CD4+ cells; [1])	TNF release (murine CD4+ cells; [1])	Cumulative score and duration of the disease compared to vehicle treated mice (MOG-induced EAE; full therapeutic regime, 10 mg/Kg i.p. daily from onset, 23 days)	Time after treatment interruption to reach the clinical score of vehicle treated mice (MOG-induced EAE; late prophylactic treatment interrupted) [days]	Cumulative score and duration of the disease compared to vehicle treated mice (MOG-induced EAE; [2])	Clinical course of the disease (MOG-induced EAE; [2])	Disease after interruption of the late prophylactic treatment (MOG-induced EAE)	IL-17 secretion from purified CD4+ T cells at low concentrations (murine CD4+ cells; concentrations of 2.5 and 5 mM)
CC(C)(C)NC(=O)C1C[C@@H]2CCCC[C@@H]2CN1CC(O[N+](=O)[O-])[C@H](Cc1ccccc1)NC(=O)C(CC(N)=O)NC(=O)c1ccc2ccccc2n1 (stereo partly drawn) [Saq-NO, nitric ester of Saquinavir]	inhibited	stimulated	more profound effect	already observable	more effectively than Saq	similarly potent	did not modulate	significant reduction	≤ 9	significantly lower	ameliorated	developed a strong disease	–
CC(C)(C)NC(=O)[C@@H]1C[C@@H]2CCCC[C@@H]2CN1C[C@@H](O)[C@H](Cc1ccccc1)NC(=O)[C@H](CC(N)=O)NC(=O)c1ccc2ccccc2n1 [Saq, (2S)—N-[(2S,3R)-4-[(3S)-3-(tert-butylcarbamoyl)-decahydroisoquinolin-2-iy]-3-hydroxy-1-phenylbutan-2-il]-2-(quinolin-2-ylformamido)butanediamide, reference compound]	–	–	–	No effects	–	similarly potent	did not modulate	–	–	–	slightly reduced	maintained the same severity of the disease	inhibitory effect
